# Biological target: T1, SLO; 15-lipoxygenase-1 (15-LOX-1) (Glycine max, UniProt P08170)
# T1 construct: gene LOX1.1; SLO (abbreviation not spelt out); the introduction and aim speak of human 15-LO-1
# T1 sequence (P08170 1-839): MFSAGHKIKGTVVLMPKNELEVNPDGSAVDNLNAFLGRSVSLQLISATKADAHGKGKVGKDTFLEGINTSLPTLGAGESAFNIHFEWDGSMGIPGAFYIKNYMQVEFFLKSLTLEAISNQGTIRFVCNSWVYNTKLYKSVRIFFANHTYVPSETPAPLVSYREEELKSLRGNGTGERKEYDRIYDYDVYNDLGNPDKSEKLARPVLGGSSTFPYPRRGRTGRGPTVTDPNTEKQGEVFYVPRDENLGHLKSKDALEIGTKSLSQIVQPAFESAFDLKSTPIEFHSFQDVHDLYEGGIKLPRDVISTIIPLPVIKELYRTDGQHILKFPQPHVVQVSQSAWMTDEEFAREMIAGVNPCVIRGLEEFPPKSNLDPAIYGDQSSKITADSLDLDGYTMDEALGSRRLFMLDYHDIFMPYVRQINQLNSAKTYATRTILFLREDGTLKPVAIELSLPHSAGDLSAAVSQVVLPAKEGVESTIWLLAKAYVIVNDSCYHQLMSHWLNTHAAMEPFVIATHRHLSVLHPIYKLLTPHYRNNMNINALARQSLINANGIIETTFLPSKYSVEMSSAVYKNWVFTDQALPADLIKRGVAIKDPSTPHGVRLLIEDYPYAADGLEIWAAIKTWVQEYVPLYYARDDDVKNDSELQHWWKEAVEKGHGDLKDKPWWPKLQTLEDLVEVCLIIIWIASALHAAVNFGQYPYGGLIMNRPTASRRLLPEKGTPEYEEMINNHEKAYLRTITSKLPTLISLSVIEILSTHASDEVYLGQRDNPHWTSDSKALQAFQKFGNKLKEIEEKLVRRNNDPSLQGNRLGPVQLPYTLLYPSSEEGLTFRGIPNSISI
# Experiment: linoleic acid hydroperoxide by MBTH/DMAB/hemoglobin colour reaction, […] nm
# Assay type: biochemical
row,inhibition at 200 µM [%],SMILES
1,13,"O=C(Nc1nnc(-c2ccccn2)s1)c1cccc(F)c1 [4e, 3-Fluoro-N-(5-(pyridin-2-yl)-1,3,4-thiadiazol-2-yl)benzamide]"
2,25,"O=C(Nc1nnc(-c2ccccn2)s1)c1ccc(F)cc1 [4f, 4-Fluoro-N-(5-(pyridin-2-yl)-1,3,4-thiadiazol-2-yl)benzamide]"
3,28,"COc1ccccc1C(=O)Nc1nnc(-c2ccccn2)s1 [4j, 2-Methoxy-N-(5-(pyridin-2-yl)-1,3,4-thiadiazol-2-yl)benzamide]"
4,26,"COc1cccc(C(=O)Nc2nnc(-c3ccccn3)s2)c1 [4k, 3-Methoxy-N-(5-(pyridin-2-yl)-1,3,4-thiadiazol-2-yl)benzamide]"
5,14,"COc1ccc(C(=O)Nc2nnc(-c3ccccn3)s2)cc1 [4l, 4-Methoxy-N-(5-(pyridin-2-yl)-1,3,4-thiadiazol-2-yl)benzamide]"

# Continued, compound first:
row,SMILES,inhibition at 200 µM [%]
1,"O=C(Nc1nnc(-c2ccccn2)s1)c1ccccc1Cl [4a, 2-Chloro-N-(5-(pyridin-2-yl)-1,3,4-thiadiazol-2-yl)benzamide]",8
2,"O=C(Nc1nnc(-c2ccccn2)s1)c1cccc(Cl)c1 [4b, 3-Chloro-N-(5-(pyridin-2-yl)-1,3,4-thiadiazol-2-yl)benzamide]",8
3,"O=C(Nc1nnc(-c2ccccn2)s1)c1ccc(Cl)cc1 [4c, 4-Chloro-N-(5-(pyridin-2-yl)-1,3,4-thiadiazol-2-yl)benzamide]",12
4,"O=C(Nc1nnc(-c2ccccn2)s1)c1ccccc1F [4d, 2-Fluoro-N-(5-(pyridin-2-yl)-1,3,4-thiadiazol-2-yl)benzamide]",17

# — publication PMC5423244, “Synthesis and Biological Evaluation of N-(5-(pyridin-2-yl)-1,3,4-thiadiazol-2-yl)benzamide Derivatives as Lipoxygenase Inhibitor with Potential Anticancer Activity” (Iranian Journal of Pharmaceutical Research : IJPR, 2017)
